Assay results: ChEMBL document CHEMBL1909046, “DrugMatrix in vitro pharmacology data”

Key:
Histamine H2 receptor = Histamine H2 receptor (Homo sapiens, UniProt P25021); type: cell membranes, CHO-K1, Membrane; settings: cho-k1; also: in other assays of this panel Not Active means under 50% inhibition at 10 µM
Cytochrome P450 2D6 = Cytochrome P450 2D6 (Homo sapiens, UniProt P10635); settings: bti-tn-5b1-4; also: in other assays of this panel Not Active means under 50% inhibition at 10 µM
[1] = biological target: 5-hydroxytryptamine receptor 4 (Cavia porcellus, UniProt O70528); type: cell membranes, Dunkin-Hartley, Striatum, Membrane; also: in other assays of this panel Not Active means under 50% inhibition at 10 µM
D(4) dopamine receptor = biological target: T1, D(4) dopamine receptor (Homo sapiens, UniProt P21917); test: DRUGMATRIX: Dopamine D4.2 radioligand binding (ligand: [3H] Spiperone); type: cell membranes, CHO-K1, Membrane; settings: cho-k1; Not Active = under 50% inhibition at 10 µM
T1 sequence (P21917 whole entry): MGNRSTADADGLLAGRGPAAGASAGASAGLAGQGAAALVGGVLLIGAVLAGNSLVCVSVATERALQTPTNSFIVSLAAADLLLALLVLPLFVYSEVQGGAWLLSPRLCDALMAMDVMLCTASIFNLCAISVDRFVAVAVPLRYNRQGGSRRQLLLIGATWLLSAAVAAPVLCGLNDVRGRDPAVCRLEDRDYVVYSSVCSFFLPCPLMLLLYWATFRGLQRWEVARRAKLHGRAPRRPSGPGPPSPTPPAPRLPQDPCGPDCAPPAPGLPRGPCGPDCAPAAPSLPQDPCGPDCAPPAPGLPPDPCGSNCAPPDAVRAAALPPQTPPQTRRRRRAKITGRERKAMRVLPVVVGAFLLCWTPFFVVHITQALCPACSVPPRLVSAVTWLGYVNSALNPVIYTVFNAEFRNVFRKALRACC

[2] = biological target: Protein phosphatase 3 catalytic subunit alpha (Homo sapiens, UniProt Q08209); parameters: species or system Escherichia coli;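 also: inhibition of calcineurin (PP2B) enzyme activity, measured with DiFMUP as the substrate; in other assays of this panel Not Active means under 50% inhibition at 10 µM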
[3] = biological target: Platelet-activating factor receptor (Homo sapiens, UniProt P25105); type: tissue-based; also: in other assays of this panel Not Active means under 50% inhibition at 10 µM
Chain of Platelet-activating factor receptor (P25105 whole entry): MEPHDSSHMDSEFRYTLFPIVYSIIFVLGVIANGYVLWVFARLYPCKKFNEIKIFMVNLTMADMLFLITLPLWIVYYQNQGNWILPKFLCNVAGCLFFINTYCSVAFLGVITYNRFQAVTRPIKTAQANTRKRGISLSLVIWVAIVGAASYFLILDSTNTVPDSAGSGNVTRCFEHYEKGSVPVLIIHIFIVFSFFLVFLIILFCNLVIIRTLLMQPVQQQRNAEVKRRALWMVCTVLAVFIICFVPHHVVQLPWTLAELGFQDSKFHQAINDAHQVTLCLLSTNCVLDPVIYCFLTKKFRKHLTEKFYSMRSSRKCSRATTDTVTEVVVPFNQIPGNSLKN

Chain of Histamine H2 receptor (P25021 whole entry): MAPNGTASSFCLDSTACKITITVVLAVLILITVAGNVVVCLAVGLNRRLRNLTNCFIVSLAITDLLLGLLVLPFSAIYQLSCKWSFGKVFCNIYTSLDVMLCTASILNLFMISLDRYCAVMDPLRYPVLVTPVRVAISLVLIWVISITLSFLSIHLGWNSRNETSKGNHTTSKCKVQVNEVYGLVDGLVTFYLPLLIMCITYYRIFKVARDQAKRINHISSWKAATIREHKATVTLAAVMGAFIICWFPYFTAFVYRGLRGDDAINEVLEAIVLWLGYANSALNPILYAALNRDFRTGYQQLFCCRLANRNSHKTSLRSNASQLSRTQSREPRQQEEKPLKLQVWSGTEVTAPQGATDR
Chain of 5-hydroxytryptamine receptor 4 (O70528 whole entry): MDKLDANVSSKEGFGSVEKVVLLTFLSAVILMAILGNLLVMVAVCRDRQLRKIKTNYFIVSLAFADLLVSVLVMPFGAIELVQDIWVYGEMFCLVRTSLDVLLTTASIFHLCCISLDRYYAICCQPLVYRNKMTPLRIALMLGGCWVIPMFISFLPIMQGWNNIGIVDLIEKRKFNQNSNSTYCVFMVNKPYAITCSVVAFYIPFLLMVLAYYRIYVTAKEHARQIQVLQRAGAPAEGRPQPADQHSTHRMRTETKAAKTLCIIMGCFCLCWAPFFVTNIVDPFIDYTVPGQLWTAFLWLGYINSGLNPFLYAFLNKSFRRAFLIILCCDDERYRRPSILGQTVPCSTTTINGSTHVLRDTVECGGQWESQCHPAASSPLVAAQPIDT
Chain of Cytochrome P450 2D6 (P10635 whole entry): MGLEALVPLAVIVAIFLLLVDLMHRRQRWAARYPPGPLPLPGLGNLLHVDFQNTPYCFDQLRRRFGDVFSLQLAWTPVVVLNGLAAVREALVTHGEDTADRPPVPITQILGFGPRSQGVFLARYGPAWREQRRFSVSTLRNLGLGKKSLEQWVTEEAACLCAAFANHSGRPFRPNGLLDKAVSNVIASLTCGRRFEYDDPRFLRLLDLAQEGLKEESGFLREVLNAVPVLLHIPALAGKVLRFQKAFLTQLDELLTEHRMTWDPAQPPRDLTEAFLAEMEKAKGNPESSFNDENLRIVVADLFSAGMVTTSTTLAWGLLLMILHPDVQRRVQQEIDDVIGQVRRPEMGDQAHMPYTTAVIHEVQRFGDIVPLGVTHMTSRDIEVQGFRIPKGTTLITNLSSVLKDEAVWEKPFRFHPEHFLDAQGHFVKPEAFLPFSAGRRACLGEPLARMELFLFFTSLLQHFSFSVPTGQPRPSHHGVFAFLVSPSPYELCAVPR

CC[C@]1(O)C[C@H]2CN(CCc3c([nH]c4ccccc34)[C@@](C(=O)OC)(c3cc4c(cc3OC)N(C=O)[C@H]3[C@@](O)(C(=O)OC)[C@H](OC(C)=O)[C@]5(CC)C=CCN6CC[C@]43[C@@H]65)C2)C1 [VINCRISTINE]
Not Active: IC50 (Histamine H2 receptor) | IC50 (Cytochrome P450 2D6) | Ki (Cytochrome P450 2D6) | IC50 [1] | IC50 (D(4) dopamine receptor) | IC50 [2] | IC50 [3]

CCCOc1ccccc1-c1nc2nn[nH]c2c(=O)[nH]1 [ZAPRINAST]
Not Active: IC50 (Histamine H2 receptor) | IC50 (Cytochrome P450 2D6) | Ki (Cytochrome P450 2D6) | IC50 [1] | IC50 (D(4) dopamine receptor) | IC50 [2] | IC50 [3]

SODIUM NITROPRUSSIDE
Not Active: IC50 (Histamine H2 receptor) | Ki (Histamine H2 receptor) | IC50 (Cytochrome P450 2D6) | Ki (Cytochrome P450 2D6) | IC50 [1] | Ki [1] | IC50 (D(4) dopamine receptor) | Ki (D(4) dopamine receptor) | IC50 [2] | Ki [2] | IC50 [3] | Ki [3]
